According to ChEMBL document CHEMBL5096234, “Discovery, Optimization, and Evaluation of Selective CDK4/6 Inhibitors for the Treatment of Breast Cancer” (J Med Chem, 2022):
Active and inactive are the calls of the source. The rule behind the calls is not given here.

Columns and labels:
[1] = Acute toxicity in ICR mouse assessed as change in liver weight at 1000 to 5000 mg/kg, po administered as single dose and measured every 2 days for 14 days; format: organism-based; settings: in vivo, 336 h, dose 1000-5000 mg/kg, time 14 day
[2] = […] stability in human liver microsomes assessed as intrinsic clearance preincubated for 10 mins followed by NADPH addition by LC-MS/MS analysis; format: ADME, Microsome; settings: read-out: CLH
MCF7 [3] = test: Induction of cell cycle arrest in human MCF7 cells assessed as accumulation of cells at G1 phase at 3 uM incubated for 24 hrs by propidium iodide staining based flow cytometry analysis (reference value: 57.38%); format: functional
[4] = Inhibition of CDK1/cyclin B (unknown origin) in presence of ATP by time resolved-FRET assay; design: species or system Homo sapiens
[5] = […] stability in human liver microsomes assessed as half life preincubated for 10 mins followed by NADPH addition by LC-MS/MS analysis; format: ADME, Microsome
CDK2/Cyclin A2 = CDK2/Cyclin A2 (Homo sapiens, UniProt P24941); test: Inhibition of CDK2/Cyclin A (unknown origin) in presence of ATP by time resolved-FRET assay; format: protein-complex assay
[6] = Acute toxicity in ICR mouse assessed as lung lesions at 5000 mg/kg, po administered as single dose and measured every 2 days for 14 days by H and E staining based analysis; format: organism-based; settings: in vivo, 336 h, time 14 day
MCF7 [7] = test: Induction of cell cycle arrest in human MCF7 cells assessed as accumulation of cells at G1 phase at 1.5 uM incubated for 24 hrs by propidium iodide staining based flow cytometry analysis (reference value: 57.38%); format: functional
T47D [8] = test: Inhibition of clone formation in human T47D cells at 1 to 8 uM by crystal voilet staining based analysis; format: functional, cell-based; settings: dose 1-8 µM, time 2.0 weeks
[9] = Acute toxicity in ICR mouse assessed as change in heart weight at 1000 to 5000 mg/kg, po administered as single dose and measured every 2 days for 14 days; format: organism-based; settings: in vivo, 336 h, dose 1000-5000 mg/kg, time 14 day
[10] = Acute toxicity in ICR mouse assessed as spleen lesions at 5000 mg/kg, po administered as single dose and measured every 2 days for 14 days by H and E staining based analysis; format: organism-based; settings: in vivo, 336 h, time 14 day
CDK7/Cyclin H/MNAT1 = CDK7/Cyclin H/MNAT1 (Homo sapiens, UniProt P50613); test: Inhibition of CDK7/cyclin H/MAT1 (unknown origin) in presence of ATP by time resolved-FRET assay; format: protein-complex assay
MCF7 [11] = test: Downregulation cyclin D1 level in human MCF7 cells incubated for 24 hrs by Western blot analysis; format: functional, cell-based; settings: dose 1.5-5 µM, DDE = dose-dependent effect
[12] = Acute toxicity in ICR mouse assessed as liver lesions at 5000 mg/kg, po administered as single dose and measured every 2 days for 14 days by H and E staining based analysis; format: organism-based; settings: in vivo, 336 h, time 14 day
[13] = Half life in Sprague-Dawley rat 1 mg/kg, iv by LC/MS/MS analysis; format: ADME, organism-based; settings: in vivo
MCF7 [14] = test: Inhibition of clone formation in human MCF7 cells at 0.75 to 6 uM by crystal voilet staining based analysis; format: functional, cell-based; settings: dose 0.75-6 µM, time 2.0 weeks
[15] = Cmax in Sprague-Dawley rat 1 mg/kg, iv by LC/MS/MS analysis; format: ADME, organism-based; design: dose 1 mg/kg, route iv; settings: in vivo
T47D [16] = test: Induction of cell cycle arrest in human T47D cells assessed as accumulation of cells at G2 phase at 4 uM incubated for 24 hrs by propidium iodide staining based flow cytometry analysis (reference value: 16.57%); format: functional
MCF7 [17] = test: Antiproliferative activity against human MCF7 cells assessed as cell growth inhibition incubated for 72 hrs by CCK-8 assay; format: functional
CDK6/cyclin D1 = CDK6/cyclin D1 (Homo sapiens, UniProt Q00534); test: Inhibition of CDK6/cyclin-D1 (unknown origin) in presence of ATP by time resolved-FRET assay; format: protein-complex assay
T47D [18] = test: Induction of cell cycle arrest in human T47D cells assessed as accumulation of cells at G2 phase at 2 uM incubated for 24 hrs by propidium iodide staining based flow cytometry analysis (reference value: 16.57%); format: functional
MCF7 [19] = test: Downregulation c-MYC level in human MCF7 cells incubated for 24 hrs by Western blot analysis; format: functional, cell-based; settings: dose 1.5-5 µM, DDE = dose-dependent effect
[20] = Acute toxicity in ICR mouse assessed as heart lesions at 5000 mg/kg, po administered as single dose and measured every 2 days for 14 days by H and E staining based analysis; format: organism-based; settings: in vivo, 336 h, time 14 day
[21] = Acute toxicity in ICR mouse assessed as change in heart kidney at 1000 to 5000 mg/kg, po administered as single dose and measured every 2 days for 14 days; format: organism-based; settings: in vivo, 336 h, dose 1000-5000 mg/kg, time 14 day
[22] = MRT (0 to infinity) in Sprague-Dawley rat 10 mg/kg, po by LC/MS/MS analysis; format: ADME, organism-based; settings: in vivo
MCF7 [23] = test: Antitumor activity against human MCF7 cells xenografted in BALB/c mouse assessed as inhibition of tumor growth at 150 mg/kg, po administered once daily and measured every 2 days for 23 days; format: functional, organism-based; settings: time 23.0 day
MCF7 [24] = test: Induction of cell cycle arrest in human MCF7 cells assessed as accumulation of cells at G1 phase at 6 uM incubated for 24 hrs by propidium iodide staining based flow cytometry analysis (reference value: 57.38%); format: functional
[25] = AUC (0 to infinity) in Sprague-Dawley rat 1 mg/kg, iv by LC/MS/MS analysis; format: ADME, organism-based; design: time infinity, dose 1 mg/kg, route iv; settings: in vivo
ZR-75-1 = test: Antiproliferative activity against human ZR-75-1 cells assessed as cell growth inhibition incubated for 72 hrs by CCK-8 assay; format: functional
[26] = Acute toxicity in ICR mouse assessed as change in lung weight at 1000 to 5000 mg/kg, po administered as single dose and measured every 2 days for 14 days; format: organism-based; settings: in vivo, 336 h, dose 1000-5000 mg/kg, time 14 day
MCF7 [27] = test: Antiproliferative activity against human MCF7 cells assessed as inhibition of cell growth at 1.5 to 6 uM incubated for 5 days by CCK-8 assay; format: functional, cell-based; settings: dose 1.5-6 µM, time 5.0 day
MCF7 [28] = test: Induction of cell cycle arrest in human MCF7 cells assessed as accumulation of cells at G2 phase at 6 uM incubated for 24 hrs by propidium iodide staining based flow cytometry analysis (reference value: 29.66%); format: functional
[29] = Cmax in Sprague-Dawley rat 10 mg/kg, po by LC/MS/MS analysis; format: ADME, organism-based; design: dose 10 mg/kg, route po; settings: in vivo
[30] = AUC (0 to infinity) in Sprague-Dawley rat 10 mg/kg, po by LC/MS/MS analysis; format: ADME, organism-based; design: time infinity, dose 10 mg/kg, route po; settings: in vivo
T47D [31] = test: Induction of cell cycle arrest in human T47D cells assessed as accumulation of cells at G1 phase at 2 uM incubated for 24 hrs by propidium iodide staining based flow cytometry analysis (reference value: 69.55 %); format: functional
MCF7 [32] = test: Induction of cell cycle arrest in human MCF7 cells assessed as accumulation of cells at G2 phase at 1.5 uM incubated for 24 hrs by propidium iodide staining based flow cytometry analysis (reference value: 29.66%); format: functional
T47D [33] = test: Induction of cell cycle arrest in human T47D cells assessed as accumulation of cells at G1 phase at 4 uM incubated for 24 hrs by propidium iodide staining based flow cytometry analysis (reference value: 69.55 %); format: functional
T47D [34] = test: Antiproliferative activity against human T47D cells assessed as inhibition of cell growth at 1 to 4 uM incubated for 5 days by CCK-8 assay; format: functional, cell-based; settings: dose 1-4 µM, time 5.0 day

Chain of CDK7/Cyclin H/MNAT1 (P51946 whole entry): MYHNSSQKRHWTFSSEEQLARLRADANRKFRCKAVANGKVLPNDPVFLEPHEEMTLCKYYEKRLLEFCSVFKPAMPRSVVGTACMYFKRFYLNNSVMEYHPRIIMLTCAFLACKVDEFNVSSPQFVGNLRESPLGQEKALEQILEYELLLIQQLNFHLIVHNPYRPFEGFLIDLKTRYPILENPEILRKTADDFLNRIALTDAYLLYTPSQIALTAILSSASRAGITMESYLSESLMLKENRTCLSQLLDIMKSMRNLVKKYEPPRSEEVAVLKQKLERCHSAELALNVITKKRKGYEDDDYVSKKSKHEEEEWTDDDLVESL
Chain of CDK7/Cyclin H/MNAT1 (P50613 whole entry): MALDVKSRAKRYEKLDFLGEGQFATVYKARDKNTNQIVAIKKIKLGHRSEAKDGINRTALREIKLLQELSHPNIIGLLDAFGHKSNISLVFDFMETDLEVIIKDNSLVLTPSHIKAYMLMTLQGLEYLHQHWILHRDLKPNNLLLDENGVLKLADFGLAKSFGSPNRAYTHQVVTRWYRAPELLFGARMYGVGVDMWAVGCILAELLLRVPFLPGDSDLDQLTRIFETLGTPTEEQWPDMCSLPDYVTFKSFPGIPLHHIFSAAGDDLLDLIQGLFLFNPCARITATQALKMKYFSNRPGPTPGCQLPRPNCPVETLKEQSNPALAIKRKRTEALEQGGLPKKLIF
Chain of CDK7/Cyclin H/MNAT1 (P51948 whole entry, further chain): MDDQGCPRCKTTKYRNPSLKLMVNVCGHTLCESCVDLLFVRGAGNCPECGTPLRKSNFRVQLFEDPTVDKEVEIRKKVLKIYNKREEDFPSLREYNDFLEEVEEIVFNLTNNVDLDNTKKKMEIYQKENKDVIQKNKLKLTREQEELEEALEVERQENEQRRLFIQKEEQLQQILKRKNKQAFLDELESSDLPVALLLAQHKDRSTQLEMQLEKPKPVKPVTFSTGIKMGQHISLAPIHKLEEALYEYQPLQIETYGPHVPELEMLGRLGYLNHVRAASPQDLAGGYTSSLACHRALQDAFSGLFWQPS
Chain of CDK6/cyclin D1 (P24385 whole entry): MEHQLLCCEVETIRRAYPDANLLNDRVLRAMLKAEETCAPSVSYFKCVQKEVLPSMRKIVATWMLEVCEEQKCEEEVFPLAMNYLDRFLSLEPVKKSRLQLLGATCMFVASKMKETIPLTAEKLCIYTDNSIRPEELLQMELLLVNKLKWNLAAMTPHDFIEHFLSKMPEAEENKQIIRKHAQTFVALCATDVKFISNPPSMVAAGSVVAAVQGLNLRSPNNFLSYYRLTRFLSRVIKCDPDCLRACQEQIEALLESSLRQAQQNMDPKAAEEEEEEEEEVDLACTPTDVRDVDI
Chain of CDK6/cyclin D1 (Q00534 whole entry): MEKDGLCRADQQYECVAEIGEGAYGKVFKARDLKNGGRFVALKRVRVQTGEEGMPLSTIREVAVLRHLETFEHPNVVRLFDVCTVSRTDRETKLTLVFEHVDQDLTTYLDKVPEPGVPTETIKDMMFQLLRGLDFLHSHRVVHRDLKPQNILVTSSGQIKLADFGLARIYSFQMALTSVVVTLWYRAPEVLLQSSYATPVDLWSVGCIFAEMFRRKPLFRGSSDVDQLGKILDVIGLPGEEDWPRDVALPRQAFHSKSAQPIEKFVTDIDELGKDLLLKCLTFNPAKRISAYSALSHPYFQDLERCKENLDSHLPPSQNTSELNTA

**Q.** Which Activity [1] does the source give for CCN1CCc2cc(-c3nc(Nc4ccc(N5CCNCC5)cn4)ncc3F)ccc2C1=O here?
**A.** Non-Toxic

**Q.** What about the CLint scaled [2] of the same molecule?
**A.** 0.69 L/h/kg

**Q.** What about the Activity (MCF7 [3]) of the same molecule?
**A.** 83.91%

**Q.** And the IC50 [4]?
**A.** > 10 µM

**Q.** What about the half-life [5] of the same molecule?
**A.** 1.8 h

**Q.** What about the IC50 (CDK2/Cyclin A2) of the same molecule?
**A.** 1.05 µM

**Q.** What about the Activity [6] of the same molecule?
**A.** Non-Toxic

**Q.** And the Activity (MCF7 [7])?
**A.** 79.52%

**Q.** What about the inhibition (T47D [8]) of the same molecule?
**A.** Active

**Q.** And the Activity [9]?
**A.** Non-Toxic

**Q.** What about the Activity [10] of the same molecule?
**A.** Non-Toxic

**Q.** What about the IC50 (CDK7/Cyclin H/MNAT1) of the same molecule?
**A.** 2.6 µM

**Q.** And the Activity (MCF7 [11])?
**A.** Dde

**Q.** What about the Activity [12] of the same molecule?
**A.** Non-Toxic

**Q.** And the half-life [13]?
**A.** 2.62 h

**Q.** And the inhibition (MCF7 [14])?
**A.** Active

**Q.** What about the Cmax [15] of the same molecule?
**A.** 0.291 µg/mL

**Q.** And the Activity (T47D [16])?
**A.** 5.87%

**Q.** What about the GI50 (MCF7 [17]) of the same molecule?
**A.** 2.7 µM

**Q.** And the IC50 (CDK6/cyclin D1)?
**A.** 0.016 µM

**Q.** And the Activity (T47D [18])?
**A.** 6.06%

**Q.** And the Activity (MCF7 [19])?
**A.** Dde

**Q.** What about the Activity [20] of the same molecule?
**A.** Non-Toxic

**Q.** What about the Activity [21] of the same molecule?
**A.** Non-Toxic

**Q.** What about the MRT inf [22] of the same molecule?
**A.** 9.11 h

**Q.** And the inhibition (MCF7 [23])?
**A.** Active

**Q.** What about the Activity (MCF7 [24]) of the same molecule?
**A.** 85.27%

**Q.** And the AUC(0-inf) [25]?
**A.** 0.373 µg·h/mL

**Q.** And the GI50 (ZR-75-1)?
**A.** 3.2 µM

**Q.** What about the Activity [26] of the same molecule?
**A.** Non-Toxic

**Q.** And the inhibition (MCF7 [27])?
**A.** Active

**Q.** What about the Activity (MCF7 [28]) of the same molecule?
**A.** 10.67%

**Q.** What about the Cmax [29] of the same molecule?
**A.** 0.144 µg/mL

**Q.** What about the AUC(0-inf) [30] of the same molecule?
**A.** 1.61 µg·h/mL

**Q.** And the Activity (T47D [31])?
**A.** 85.48%

**Q.** And the Activity (MCF7 [32])?
**A.** 13.57%

**Q.** And the Activity (T47D [33])?
**A.** 87.12%

**Q.** What about the inhibition (T47D [34]) of the same molecule?
**A.** Active
